T1: lectin UEA-1 (Ulex europaeus, UniProt P22972)
T1 construct: purchased EY Labs, Inc
T1 sequence (P22972 1-243): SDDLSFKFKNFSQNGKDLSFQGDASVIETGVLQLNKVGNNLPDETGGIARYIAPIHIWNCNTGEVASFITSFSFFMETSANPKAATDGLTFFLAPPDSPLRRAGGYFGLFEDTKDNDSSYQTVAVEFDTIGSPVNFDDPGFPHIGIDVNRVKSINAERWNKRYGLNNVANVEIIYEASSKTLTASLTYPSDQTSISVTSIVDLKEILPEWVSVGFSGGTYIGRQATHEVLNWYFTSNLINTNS


Experiments:
[1] = tested on: recombinant hemagglutinin (HA) of H1N1 (A/Beijing/262/95); assay type: binding, influenza virus H1N1 (A/Beijing/262/95)
[2] = tested on: H1N1 virus (A/Beijing/262/95); assay type: binding, influenza virus H1N1 (A/Beijing/262/95); settings: virus particles on acceptor beads, FIG. 5A
[3] = tested on: H3N2 virus (A/Panama/2007/99); assay type: binding, influenza virus H3N2 (A/Panama/2007/99); settings: virus particles on acceptor beads, FIG. 5B
[4] = tested on: anti-Lex antibody; test: ALPHAScreen sugar/protein binding assay, sugar on donor beads, antibody on acceptor beads; settings: sugar linked to streptavidin donor beads
[5] = ALPHAScreen profiling of lectin binding specificities with biotinylated PAA-sugars; settings: for Binding specificities: Table 2 (SI), examined lectins
[6] = target: T1, lectin UEA-1; test: ALPHAScreen sugar/protein binding assay, sugar on donor beads, lectin on acceptor beads; settings: sugar linked to streptavidin donor beads, UEA-1 on acceptor beads

Molecule | recognition by HA of H1N1 (A/Beijing/262/95) [1] | recognition by H1N1 virus (A/Beijing/262/95) [2] | further results
CC(=O)N[C@H]1C(O)O[C@H](CO[C@]2(C(=O)O)C[C@H](O)[C@@H](NC(=O)CO)[C@H]([C@H](O)[C@H](O)CO)O2)[C@H](O)[C@@H]1O (stereo partly drawn) [Glycan No. 22, NeuGcα2-6GalNAc] | do not recognize | do not recognize | –
CC(=O)N[C@H]1[C@H]([C@H](O)[C@H](O)CO)O[C@@](O[C@H]2[C@@H](O)[C@@H](CO)OC(O)[C@@H]2NC(C)=O)(C(=O)O)C[C@@H]1O (stereo partly drawn) [Glycan No. 27, NeuAcα2-3GalNAc] | do not recognize | do not recognize | –
(NeuAcα2-8)5-6 [Glycan No. 52] | do not recognize | do not recognize | recognition by H3N2 virus (A/Panama/2007/99) [3]: accepted
Galβ1-4(Fucα1-3)GlcNAc (Le^x) [Glycan No. 33] | – | – | binding signal with anti-Lex antibody [4]: able to produce signals
SBA: lectin of Glycine max | – | – | Binding specificities [5]: GalNAc/Gal
α-L-Fuc [Glycan No. 6] | – | – | binding signal with lectin UEA-1 [6]: able to produce signals
PNA: lectin of Arachis hypogaea (protein, UniProt P02872 24-273, looked up) Galactose-binding lectin: AETVSFNFNSFSEGNPAINFQGDVTVLSNGNIQLTNLNKVNSVGRVLYAMPVRIWSSATGNVASFLTSFSFEMKDIKDYDPADGIIFFIAPEDTQIPAGSIGGGTLGVSDTKGAGHFVGVEFDTYSNSEYNDPPTDHVGIDVNSVDSVKTVPWNSVSGAVVKVTVIYDSSTKTLSVAVTNDNGDITTIAQVVDLKAKLPERVKFGFSASGSLGGRQIHLIRSWSFTSTLITTTRRSIDNNEKKIMNMASA | – | – | Binding specificities [5]: Galβ1-3GalNAc; lectin sugar binding specificity ([5]; profiled with more than 50 biotinylated PAA-sugars, FIG. 2): binds to the Galb1-3GalNAc structure specifically
